Measurements: PubChem BioAssay (NCI)
Where “and” joins values, the source holds several entries; their conditions need not be identical. Identical values can stand only once.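 48-hour exposure; five concentrations; linearly interpolated endpoints. GI50 = concentration required for 50% inhibition of growth. TGI is the concentration that stops growth completely.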

Columns and labels:
Experiment in all cases: NCI tumour cell line growth inhibition, 48 h
[1] = tested on: A549 NSCLC
[2] = tested on: CCRF-CEM leukemia
[3] = tested on: HCC-2998 colon
[4] = tested on: LOX IMVI melanoma
[5] = tested on: NCI-H522 lung
[6] = tested on: SK-OV-3 ovarian
[7] = tested on: SW-620 colon
[8] = tested on: A498 renal
[9] = tested on: CAKI-1 renal
[10] = tested on: HOP-92 NSCLC

Structure (SMILES)	TGI [1]	TGI [2]	TGI [3]	TGI [4]	TGI [5]	TGI [6]	TGI [7]	TGI [8]	GI50 [8]	GI50 [1]	GI50 [9]	TGI [9]	GI50 [2]	GI50 [10]	TGI [10]	GI50 [4]	GI50 [5]	GI50 [6]	GI50 [7]	GI50 [3]
COP1(=O)CC2C(Cl)(Cl)C2(C)C1 (stereo not given)	> 100 µM	> 100 µM	> 100 µM	> 100 µM	> 100 µM	> 100 µM	> 100 µM	–	–	–	–	–	–	–	–	–	–	–	–	–
CCOC(=O)C(C)(C)Oc1ccc2c(=O)cc(-c3ccc(Cl)cc3)oc2c1	> 100 µM	> 100 µM	> 100 µM	> 100 µM	–	–	> 100 µM	> 100 µM	–	–	–	–	–	–	–	–	–	–	–	–
CC(=O)Oc1cc(C)ccc1[C@]1(C)CC[C@H](C)/C1=C\Br	17.3 µM	10.1 µM	–	17.1 µM	22.7 µM	7.65 µM	17.1 µM	17.1 µM	5.2 µM	4.98 µM	3530 nM	14.3 µM	2.75 µM	2.03 µM	12.9 µM	4.77 µM	5.28 µM	2.43 µM	5.31 µM	–
O=C1C=C(c2c(O)ccc3ccccc23)c2ccccc2C1=O	25.7 µM	7.55 µM	26.5 µM	4.42 µM	–	23.9 µM	5.21 µM	13.4 µM	–	–	–	24 µM	–	–	5.09 µM	–	–	–	–	–
CN(C)CCNc1nc2ccccc2c2c1c1c(n2Cc2ccccc2)-c2ccccc2C1=O	46.6 µM	24.1 µM	–	26.1 µM	35.3 µM	45.1 µM	24 µM	28.9 µM	14.1 µM	14.6 µM	18000 nM	37.1 µM	7.86 µM	6.19 µM	21.2 µM	11.8 µM	11 µM	20.3 µM	7.96 µM	–
Cc1nn(C(=O)c2ccccc2O)c2c1C(c1ccccc1)SC(N)=N2 (stereo not given)	> 10 µM	8.15 µM	> 10 µM	> 10 µM	> 10 µM	> 10 µM	> 10 µM	–	–	–	–	> 10 µM	–	–	–	–	–	–	–	–
CC1(C)C=CC[C@]2(C)[C@H]3CC[C@@H]4[C@H]5[C@H](C(=O)/C=C/c6cccnc6)CC[C@]5(CO)CC[C@@]4(C)[C@]3(C)CC[C@@H]12	2.49 µM	5.34 µM	–	–	2.74 µM	3.62 µM	2.31 µM	2.72 µM	1.37 µM	0.972 µM	1060 nM	2.33 µM	0.56 µM	0.66 µM	2.05 µM	–	1.19 µM	1.78 µM	1 µM	–
CC(=O)O/N=C/c1ncccc1CO	> 100 µM	> 100 µM	–	> 100 µM	> 100 µM	> 100 µM	> 100 µM	> 100 µM	–	–	–	> 100 µM	–	–	> 100 µM	–	–	–	–	–
CCC(=O)c1cn(C)c(=O)c2ccccc12	> 100 µM	> 100 µM	> 100 µM	> 100 µM	> 100 µM	> 100 µM	> 100 µM	–	–	–	–	> 100 µM	–	–	> 100 µM	–	–	–	–	–
COc1cc(-c2cc(=O)c3cc4c(cc3[nH]2)OCO4)cc(OC)c1OC	> 100 µM	> 100 µM	> 100 µM	> 100 µM	> 100 µM	> 100 µM	> 100 µM	–	–	–	–	> 100 µM	–	–	69 µM	–	–	–	–	–
Cc1c(CCCl)c(=O)n2c([nH]c3ccccc32)c1C#N	3.53 µM	2.5 µM	–	2.02 µM	–	3.84 µM	2.27 µM	–	–	–	–	2.77 µM	–	–	2.82 µM	–	–	–	–	–
Cc1cc2c(CC(=O)O)[nH]nc2c(C(=O)O)c1C	> 100 µM	> 100 µM	> 100 µM	> 100 µM	–	> 100 µM	> 100 µM	–	–	–	–	–	–	–	> 100 µM	–	–	–	–	–
C=CCn1c(C)nc2cc(Nc3nc(Nc4ccc5nc(C)n(CC=C)c5c4)c4ccccc4n3)ccc21	–	0.76 µM	2.5 µM	0.466 µM	3.27 µM	–	–	2.87 µM	1.46 µM	–	1610 nM	3.03 µM	0.279 µM	0.78 µM	2.08 µM	0.208 µM	1.43 µM	–	–	1.17 µM
Cc1nc(N)sc1C(=O)/C=C/c1ccc(/C=C/C(=O)c2sc(NC(=O)CCCCCCCCC(=O)Nc3nc(C)c(C(=O)/C=C/c4ccc(/C=C/C(=O)c5sc(N)nc5C)cc4)s3)nc2C)cc1	> 100 µM	> 100 µM	> 100 µM	> 100 µM	> 100 µM	> 100 µM	> 100 µM	–	–	–	–	> 100 µM	–	–	–	–	–	–	–	–
CC(=O)NC1=N/C(=C/c2cc([N+](=O)[O-])ccc2O)CN1C	> 100 µM	–	> 100 µM	> 100 µM	–	> 100 µM	> 100 µM	–	–	–	–	> 100 µM	–	–	> 100 µM	–	–	–	–	–
O=[N+]([O-])c1c(/C=N/Nc2ccccc2)oc(-c2ccc3c(c2)OCO3)c1-c1ccc2c(c1)OCO2	> 100 µM	–	34.3 µM	18.1 µM	> 100 µM	> 100 µM	> 100 µM	–	–	–	–	> 100 µM	–	–	> 100 µM	–	–	–	–	–

Structure (SMILES)	TGI [1]	TGI [2]	TGI [3]	TGI [4]	TGI [5]	TGI [6]	TGI [7]	TGI [8]	GI50 [8]	GI50 [1]	GI50 [9]	TGI [9]	GI50 [2]	GI50 [10]	TGI [10]	GI50 [4]	GI50 [5]	GI50 [6]	GI50 [7]	GI50 [3]
O=C(Oc1ccc(O)c2c(=O)n3c(cc12)[nH]c1ccccc13)c1ccccc1	66.8 µM	20.7 µM	36.9 µM	20.1 µM	41.2 µM	–	26.9 µM	42.4 µM	20.9 µM	24 µM	–	–	3.71 µM	23.8 µM	53.4 µM	4.77 µM	6.21 µM	–	5.1 µM	18.6 µM
O=c1cc(-c2ccccc2)[nH]c2cc(Cl)cc(Cl)c12	> 100 µM	> 100 µM	–	> 100 µM	> 100 µM	59.4 µM	> 100 µM	–	–	–	–	> 100 µM	–	–	58.3 µM	–	–	–	–	–
CCOC(=O)CCC(=O)C1c2cccc(O)c2C(=O)c2c(O)cccc21	2.18 µM	3.68 µM	2.31 µM	1.89 µM	1.46 µM	–	2.24 µM	–	–	–	–	4.99 µM	–	–	3.23 µM	–	–	–	–	–
CCN(CC)CCn1c2c3ccccc3ccc2c2oc(=O)c3ccccc3c21	> 100 µM	> 100 µM	–	> 100 µM	> 100 µM	> 100 µM	> 100 µM	–	–	–	–	> 100 µM	–	–	> 100 µM	–	–	–	–	–
N#CCCc1nc2ccc(Br)cc2c(=O)n1CCO	> 100 µM	> 100 µM	> 100 µM	> 100 µM	> 100 µM	> 100 µM	> 100 µM	–	–	–	–	> 100 µM	–	–	> 100 µM	–	–	–	–	–
O=c1cc(-c2ccccc2)[nH]c2cccc(S)c12	> 100 µM	> 100 µM	4 µM	–	–	26.1 µM	> 100 µM	–	–	–	–	–	–	–	> 100 µM	–	–	–	–	–
CCCC(=O)c1c(NOC2OC(COC(C)=O)C(OC(C)=O)C(OC(C)=O)C2OC(C)=O)nc(OC)n(C)c1=O (stereo not given)	> 100 µM	> 100 µM	> 100 µM	> 100 µM	> 100 µM	–	> 100 µM	–	–	–	–	–	–	–	–	–	–	–	–	–
c1cnc2c(c1)-n1cccc1C1(CCSCC1)NN2	> 100 µM	> 100 µM	> 100 µM	> 100 µM	> 100 µM	–	> 100 µM	–	–	–	–	> 100 µM	–	–	–	–	–	–	–	–
CC(=O)CC1CCC(=O)CCC(=O)OC(CC(C)=O)CCC(=O)CCC(=O)O1 (stereo not given)	> 100 µM	> 100 µM	> 100 µM	–	> 100 µM	> 100 µM	> 100 µM	–	–	–	–	–	–	–	> 100 µM	–	–	–	–	–
Cc1cc2nc3c(=O)n(C)c(=O)nc-3n(-c3ccc(Cl)cc3)c2cc1C	16.4 µM	45.4 µM	20.4 µM	–	–	67.4 µM	20.5 µM	89.8 µM	–	–	–	48.8 µM	–	–	34 µM	–	–	–	–	–
C=CCNC(=S)N1CC(C)C(=O)Nc2ccccc21 (stereo not given)	> 100 µM	> 100 µM	–	> 100 µM	> 100 µM	–	> 100 µM	–	–	–	–	–	–	–	–	–	–	–	–	–
COc1cc(C2c3cc4c(cc3[C@@H](Nc3ccc(C(=O)O)cc3)C3COC(=O)[C@H]23)OCO4)cc(OC)c1O (stereo not given in full)	> 100 µM	15.1 µM and 8.82 µM	53.8 µM and > 17.5 µM	18.7 µM and 5.1 µM	–	> 100 µM	62.4 µM and > 17.5 µM	68.8 µM and > 17.5 µM	–	–	–	47.1 µM and > 17.5 µM	–	–	18.5 µM and > 17.5 µM	–	–	34.4 µM and 15.3 µM	11.9 µM and 3.89 µM	–
C[CH2][Sn]1([CH2]C)[O]C(=O)[O][Sn]([CH2]C)([CH2]C)[O]1	> 100 µM	31.8 µM	> 100 µM	33 µM	–	> 100 µM	29.2 µM	32.1 µM	17.7 µM	> 65.4 µM	1440 nM	9.72 µM	5.39 µM	17.7 µM	33.1 µM	17.2 µM	–	> 100 µM	15.2 µM	60 µM
O=C(O)C1CCc2ccc3ccccc3c2C1c1cccc2ccccc12 (stereo not given)	36.4 µM	50.7 µM	–	36.3 µM	60 µM	> 100 µM	> 100 µM	67.2 µM	–	–	–	> 100 µM	–	–	38.6 µM	–	–	–	–	–
S=C(Nc1ccc(-c2nc3ccccc3[nH]2)cc1)NC1CCCCC1	–	–	32.4 µM	–	35.3 µM	–	–	–	–	40.3 µM	–	55.2 µM	36.8 µM	35.3 µM	–	15.4 µM	12.9 µM	–	31.6 µM	16.4 µM
COc1ccc2c(c1)C(=O)CC(N)C2 (stereo not given)	> 100 µM	> 100 µM	> 100 µM	> 100 µM	> 100 µM	> 100 µM	> 100 µM	–	–	–	–	> 100 µM	–	–	> 100 µM	–	–	–	–	–
